From US10526309B2, “Pan-TAM inhibitors and Mer/Axl dual inhibitors” (The University of North Carolina at Chapel Hill, priority 2015, dated 2020)
Like-named read-outs stand apart in the source and are kept apart here.

Target: T1, Tyro3 (Homo sapiens, UniProt Q06418)
T1 sequence (Q06418 41-890): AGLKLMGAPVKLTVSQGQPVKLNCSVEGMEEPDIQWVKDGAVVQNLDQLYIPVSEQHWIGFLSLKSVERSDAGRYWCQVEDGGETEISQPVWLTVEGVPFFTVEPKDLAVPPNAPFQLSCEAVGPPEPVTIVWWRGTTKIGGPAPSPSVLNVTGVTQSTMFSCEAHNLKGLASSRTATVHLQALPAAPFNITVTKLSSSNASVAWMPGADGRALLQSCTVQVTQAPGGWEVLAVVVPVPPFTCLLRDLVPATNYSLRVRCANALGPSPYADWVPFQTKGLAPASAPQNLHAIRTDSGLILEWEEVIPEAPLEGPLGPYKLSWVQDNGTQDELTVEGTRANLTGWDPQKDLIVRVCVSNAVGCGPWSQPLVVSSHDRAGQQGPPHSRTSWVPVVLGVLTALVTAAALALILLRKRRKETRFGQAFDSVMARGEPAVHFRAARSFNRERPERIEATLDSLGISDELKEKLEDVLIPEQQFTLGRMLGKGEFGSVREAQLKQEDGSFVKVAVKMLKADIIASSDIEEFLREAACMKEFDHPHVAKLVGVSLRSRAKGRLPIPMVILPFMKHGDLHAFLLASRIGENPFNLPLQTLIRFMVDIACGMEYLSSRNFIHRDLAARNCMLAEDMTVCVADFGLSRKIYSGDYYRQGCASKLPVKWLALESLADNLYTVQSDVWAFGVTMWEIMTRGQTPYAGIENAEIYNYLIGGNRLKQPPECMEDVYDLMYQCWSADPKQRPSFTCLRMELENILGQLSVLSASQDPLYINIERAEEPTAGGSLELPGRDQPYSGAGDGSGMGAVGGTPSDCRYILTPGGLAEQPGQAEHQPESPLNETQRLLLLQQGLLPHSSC
Test: Tyro3 kinase inhibition IC50
Type: biochemical
Details: read-out: Tyro3 IC50

O[C@H]1CC[C@H](Nc2nc(Nc3ccccc3)ncc2-c2ccc(CN3CCCC3)cn2)CC1 [UNC4198A]
IC50 (Example 6): 0.56 nM | IC50 (Table 1): < 10 nM
